We go through 5 molecules from patent US12559529B2, “NPY2 receptor agonists” (Boehringer Ingelheim International GmbH, priority 2019, dated 2026).

*1 amine or outer side, *2 acyl side, *3 side chain or, on linkers, in order; H or OH if unused. Where a SMILES comes first, the peptide text is derived from it. Side-chain parts run from the residue outwards. The star is where a group is joined. C18 diacid = O=C(O)CCCCCCCCCCCCCCCCC(=O)*; γGlu = O=C(O)[C@H](CCC(=O)[*:2])N[*:1]; Isovaleryl = CC(C)CC(=O)*; AEEA = NCCOCCOCC(=O)O

The Ki is a measure of affinity in units of concentration, obtained from inhibition or displacement.

Assay [1] deals with T1, Human Neuropeptide Y2 Receptor (Homo sapiens, UniProt P49146).
T1 construct: purchased CHEMICON HTS066M
T1 sequence (P49146 1-381): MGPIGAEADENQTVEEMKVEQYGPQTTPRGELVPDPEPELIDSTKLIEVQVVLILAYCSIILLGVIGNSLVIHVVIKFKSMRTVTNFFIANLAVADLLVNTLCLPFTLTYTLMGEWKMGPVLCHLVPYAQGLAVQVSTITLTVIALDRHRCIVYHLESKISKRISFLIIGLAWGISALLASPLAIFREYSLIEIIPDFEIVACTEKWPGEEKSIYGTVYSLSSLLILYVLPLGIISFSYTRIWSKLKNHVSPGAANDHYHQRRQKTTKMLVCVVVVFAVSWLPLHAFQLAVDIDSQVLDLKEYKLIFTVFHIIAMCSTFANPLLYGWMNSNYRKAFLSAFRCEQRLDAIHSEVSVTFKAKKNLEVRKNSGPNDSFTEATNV
Description: Radioligand binding competition assay (RLB). The settings on record: Table 3; human 125I-PYY (1-36) 0.02 nM, Y2 receptor membranes; read-out: Ki. Summed up:
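Competition binding on human Y2 receptor membranes, 0.5 μg protein/well, in 50 mM HEPES, 5 mM MgCl2, 1 mM CaCl2, pH 7.4, 0.2% ovalbumin; peptides diluted from 1 mM DMSO stocks.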

The subject of another assay is normal NMRI mice. Description: Effect on acute food intake in normal NMRI mice. The settings on record: male NMRI mice, 10 nmol/kg subcutaneously once. The class given is in vivo. Summed up: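 A single 10 nmol/kg s.c. peptide dose was given 1 h before lights-off to male NMRI mice fasted from 6 h before the night phase (n=7-8). Intake was recorded continuously by microchip-identified HM-2 feeding channels. Values are normalized to vehicle controls (50 mM phosphate buffer pH7 with 5% Mannitol).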

`CC(C)CC(=O)N[C@@H](C)C(=O)N1CCC[C@H]1C(=O)N[C@@H](CCC(=O)O)C(=O)N[C@@H](CCCCNC(=O)COCCOCCNC(=O)COCCOCCNC(=O)CC[C@H](NC(=O)CCCCCCCCCCCCCCCCC(=O)O)C(=O)O)C(=O)N1CCC[C@H]1C(=O)N[C@@H](CCC(=O)O)C(=O)N[C@@H](CCC(=O)O)C(=O)N[C@@H](CC(=O)O)C(=O)N[C@@H](C)C(=O)N[C@@H](CO)C(=O)N1CCC[C@H]1C(=O)N[C@@H](CCC(=O)O)C(=O)N[C@@H](CCC(=O)O)C(=O)N[C@H](C(=O)N[C@@H](CCC(N)=O)C(=O)N[C@@H](CCCNC(=N)N)C(=O)N[C@@H](Cc1ccc(O)cc1)C(=O)N[C@@H](Cc1ccc(O)cc1)C(=O)N[C@H](C(=O)N[C@@H](CCC(=O)O)C(=O)N[C@@H](CC(C)C)C(=O)N[C@@H](CCCNC(=N)N)C(=O)N[C@@H](Cc1c[nH]cn1)C(=O)N[C@@H](Cc1ccc(O)cc1)C(=O)N[C@@H](Cc1ccc(O)cc1)C(=O)N[C@@H](CC(N)=O)C(=O)N[C@@H](Cc1c[nH]c2ccccc12)C(=O)N[C@@H](CC(C)C)C(=O)N[C@H](C(=O)N[C@@H](CCCNC(=N)N)C(=O)N[C@@H](CCC(N)=O)C(=O)N[C@@H](CCCNC(=N)N)C(=O)N[C@@H](Cc1ccc(O)cc1)C(N)=O)[C@@H](C)O)C(C)C)C(C)C` [Compound 133, N{alpha-4}-(3-methylbutanoyl)-N{epsilon-7}-[2-(2-{2-[2-(2-{2-[(4S)-4-carboxy-4-(17-carboxyheptadecanamido)butanamido]ethoxy}ethoxy)acetamido]ethoxy}ethoxy)acetamido]-[4A,7K,9E,17V,18Q,22V,23E,28Y,30W,31L]hPYY (4-36)]: the Ki in assay [1] amounted to 2.31 nM. Moreover, the “Acute Food Intake 24 h [% vehicle]” value in the assay with normal NMRI mice came to 57 % vehicle.

With `CC(C)CC(=O)N[C@@H](C)C(=O)N1CCC[C@H]1C(=O)N[C@@H](CCC(=O)O)C(=O)N[C@@H](CCCCNC(=O)COCCOCCNC(=O)COCCOCCNC(=O)CC[C@H](NC(=O)CCCCCCCCCCCCCCCCC(=O)O)C(=O)O)C(=O)N1CCC[C@H]1C(=O)N[C@@H](CCC(=O)O)C(=O)N[C@@H](CCC(=O)O)C(=O)N[C@@H](CCC(=O)O)C(=O)N[C@@H](CO)C(=O)N[C@@H](CO)C(=O)N1CCC[C@H]1C(=O)N[C@@H](CCC(=O)O)C(=O)N[C@@H](CCC(=O)O)C(=O)N[C@@H](CC(C)C)C(=O)N[C@@H](CCC(N)=O)C(=O)N[C@@H](CCCNC(=N)N)C(=O)N[C@@H](Cc1ccc(O)cc1)C(=O)N[C@@H](Cc1ccc(O)cc1)C(=O)N[C@H](C(=O)N[C@@H](CO)C(=O)N[C@@H](CC(C)C)C(=O)N[C@@H](CCCNC(=N)N)C(=O)N[C@@H](Cc1c[nH]cn1)C(=O)N[C@@H](Cc1ccc(O)cc1)C(=O)N[C@@H](Cc1ccc(O)cc1)C(=O)N[C@@H](CC(N)=O)C(=O)N[C@@H](Cc1c[nH]c2ccccc12)C(=O)N[C@@H](CC(C)C)C(=O)N[C@H](C(=O)N[C@@H](CCCNC(=N)N)C(=O)N[C@@H](CCC(N)=O)C(=O)N[C@@H](CCCNC(=N)N)C(=O)N[C@@H](Cc1ccc(O)cc1)C(N)=O)[C@@H](C)O)C(C)C` [Compound 139, N{alpha-4}-(3-methylbutanoyl)-N{epsilon-7}-[2-(2-{2-[2-(2-{2-[(4S)-4-carboxy-4-(17-carboxyheptadecanamido)butanamido]ethoxy}ethoxy)acetamido]ethoxy}ethoxy)acetamido]-[4A,7K,9E,11E,12S,18Q,22V,28Y,30W,31L]hPYY (4-36)] (Isovaleryl-APEK([AEEA-AEEA-γGlu-C18 diacid])PEEESSPEELQRYYVSLRHYYNWLTRQRY-NH2), the Ki in assay [1] turned out to be 3.83 nM. The “Acute Food Intake 24 h [% vehicle]” value in the assay on normal NMRI mice was 74 % vehicle.

Turning to `CC(C)CC(=O)N[C@@H](C)C(=O)N1CCC[C@H]1C(=O)N[C@@H](CCC(=O)O)C(=O)N[C@@H](CCCCNC(=O)COCCOCCNC(=O)COCCOCCNC(=O)CC[C@H](NC(=O)CCCCCCCCCCCCCCCCC(=O)O)C(=O)O)C(=O)N1CCC[C@H]1C(=O)N[C@@H](CCC(=O)O)C(=O)N[C@@H](CCC(=O)O)C(=O)N[C@@H](CC(=O)O)C(=O)N[C@@H](C)C(=O)N[C@@H](CCC(=O)O)C(=O)N1CCC[C@H]1C(=O)N[C@@H](CCC(=O)O)C(=O)N[C@@H](CCC(=O)O)C(=O)N[C@@H](CC(C)C)C(=O)N[C@@H](CCC(N)=O)C(=O)N[C@@H](CCCCN)C(=O)N[C@@H](Cc1ccc(O)cc1)C(=O)N[C@@H](Cc1ccc(O)cc1)C(=O)N[C@H](C(=O)N[C@@H](CO)C(=O)N[C@@H](CC(C)C)C(=O)N[C@@H](CCCNC(=N)N)C(=O)N[C@@H](Cc1c[nH]cn1)C(=O)N[C@@H](Cc1ccc(O)cc1)C(=O)N[C@@H](Cc1ccc(O)cc1)C(=O)N[C@@H](CC(N)=O)C(=O)N[C@@H](Cc1c[nH]c2ccccc12)C(=O)N[C@@H](CC(C)C)C(=O)N[C@H](C(=O)N[C@@H](CCCNC(=N)N)C(=O)N[C@@H](CCC(N)=O)C(=O)N[C@@H](CCCNC(=N)N)C(=O)N[C@@H](Cc1ccc(O)cc1)C(N)=O)[C@@H](C)O)C(C)C` [Compound 150, N{alpha-4}-(3-methylbutanoyl)-N{epsilon-7}-[2-(2-{2-[2-(2-{2-[(4S)-4-carboxy-4-(17-carboxyheptadecanamido)butanamido]ethoxy}ethoxy)acetamido]ethoxy}ethoxy)acetamido]-[4A,7K,9E,13E,18Q,19K,22V,28Y,30W,31L]hPYY (4-36)], the Ki in assay [1] was determined as 2.02 nM. Also, in the assay on normal NMRI mice, the “Acute Food Intake 24 h [% vehicle]” value was 67 % vehicle.

As to `CC(C)CC(=O)N[C@@H](C)C(=O)N1CCC[C@H]1C(=O)N[C@@H](CCC(=O)O)C(=O)N[C@@H](CCCCNC(=O)COCCOCCNC(=O)COCCOCCNC(=O)CC[C@H](NC(=O)CCCCCCCCCCCCCCCCC(=O)O)C(=O)O)C(=O)N1CCC[C@H]1C(=O)N[C@@H](CCC(=O)O)C(=O)N[C@@H](C)C(=O)N[C@@H](CCC(=O)O)C(=O)N[C@@H](C)C(=O)N[C@@H](CO)C(=O)N1CCC[C@H]1C(=O)N[C@@H](CCC(=O)O)C(=O)N[C@@H](CCC(=O)O)C(=O)N[C@@H](CC(C)C)C(=O)N[C@@H](CCC(N)=O)C(=O)N[C@@H](CCCNC(=N)N)C(=O)N[C@@H](Cc1ccc(O)cc1)C(=O)N[C@@H](Cc1ccc(O)cc1)C(=O)N[C@H](C(=O)N[C@@H](CO)C(=O)N[C@@H](CC(C)C)C(=O)N[C@@H](CCCNC(=N)N)C(=O)N[C@@H](Cc1c[nH]cn1)C(=O)N[C@@H](Cc1ccc(O)cc1)C(=O)N[C@@H](Cc1ccc(O)cc1)C(=O)N[C@@H](CC(N)=O)C(=O)N[C@@H](Cc1c[nH]c2ccccc12)C(=O)N[C@@H](CC(C)C)C(=O)N[C@H](C(=O)N[C@@H](CCCNC(=N)N)C(=O)N[C@@H](CCC(N)=O)C(=O)N[C@@H](CCCNC(=N)N)C(=O)N[C@@H](Cc1ccc(O)cc1)C(N)=O)[C@@H](C)O)C(C)C` [Compound 151, N{alpha-4}-(3-methylbutanoyl)-N{epsilon-7}-[2-(2-{2-[2-(2-{2-[(4S)-4-carboxy-4-(17-carboxyheptadecanamido)butanamido]ethoxy}ethoxy)acetamido]ethoxy}ethoxy)acetamido]-[4A,7K,9E,10A,11E,18Q,22V,28Y,30W,31L]hPYY (4-36)], in assay [1], the Ki stood at 1.43 nM. Moreover, in the assay on normal NMRI mice, the “Acute Food Intake 24 h [% vehicle]” value is 45 % vehicle.

For the molecule `CC(C)CC(=O)N[C@@H](C)C(=O)N1CCC[C@H]1C(=O)N[C@@H](CCC(=O)O)C(=O)N[C@@H](CCCCNC(=O)COCCOCCNC(=O)COCCOCCNC(=O)CC[C@H](NC(=O)CCCCCCCCCCCCCCCCC(=O)O)C(=O)O)C(=O)N1CCC[C@H]1C(=O)N[C@@H](CCC(=O)O)C(=O)N[C@@H](CCC(=O)O)C(=O)N[C@@H](C)C(=O)N[C@@H](C)C(=O)N[C@@H](CO)C(=O)N1CCC[C@H]1C(=O)N[C@@H](CCC(=O)O)C(=O)N[C@@H](CCC(=O)O)C(=O)N[C@@H](CC(C)C)C(=O)N[C@@H](CCC(N)=O)C(=O)N[C@@H](CCCNC(=N)N)C(=O)N[C@@H](Cc1ccc(O)cc1)C(=O)N[C@@H](Cc1ccc(O)cc1)C(=O)N[C@H](C(=O)N[C@@H](C)C(=O)N[C@@H](CC(C)C)C(=O)N[C@@H](CCCNC(=N)N)C(=O)N[C@@H](Cc1c[nH]cn1)C(=O)N[C@@H](Cc1ccc(O)cc1)C(=O)N[C@@H](Cc1ccc(O)cc1)C(=O)N[C@@H](CC(N)=O)C(=O)N[C@@H](Cc1c[nH]c2ccccc12)C(=O)N[C@@H](CC(C)C)C(=O)N[C@H](C(=O)N[C@@H](CCCNC(=N)N)C(=O)N[C@@H](CCC(N)=O)C(=O)N[C@@H](CCCNC(=N)N)C(=O)N[C@@H](Cc1ccc(O)cc1)C(N)=O)[C@@H](C)O)C(C)C` [Compound 163, N{alpha-4}-(3-methylbutanoyl)-N{epsilon-7}-[2-(2-{2-[2-(2-{2-[(4S)-4-carboxy-4-(17-carboxyheptadecanamido)butanamido]ethoxy}ethoxy)acetamido]ethoxy}ethoxy)acetamido]-[4A,7K,9E,11A,18Q,22V,23A,28Y,30W,31L]hPYY (4-36)], in assay [1], the Ki worked out at 0.96 nM. The “Acute Food Intake 24 h [% vehicle]” value with normal NMRI mice is on record as 50 % vehicle.
